Structures can show the parent of a compound that is named as a salt.
Legend:
CD-1 mice [1] = experiment: Tail suspension test (TST); assay type: in vivo; details: 7th day, 30 minutes after oral treatment, 6 minute test, measured in the last 4 minutes; kefir fermentation product 150 mg/kg, peptides 10 mg/kg; average±standard deviation
Experimental: Refer to the steps of Example 2, the CD-1 mice are randomly divided into five groups and raised under the following conditions: • the first group: take distilled water orally; • the second group: take 150 mg/kg kefir fermentation product orally; • the third group: take the peptide 1 (10 mg/kg) disclosed in Example 1 orally, and the amino acid sequence is SEQ ID No: 1; • the fourth group: take the peptide 2 (10 mg/kg) disclosed in Example 1 orally, and the amino acid sequence is SEQ ID No: 2; and • the fifth group 5: take the peptide 3 (10 mg/kg) disclosed in Example 1 orally, and the amino acid sequence is SEQ ID No: 3.
When the mice in each of the groups are raised to the 7th day, after 30 minutes of treatment according to the following conditions, a tail suspension test is carried out for 6 minutes, and the immobility time is measured in the last 4 minutes. The results are shown in FIG. 5, wherein the immobility time refers to a period of time in which the mice are suspended and completely still.

CD-1 mice [2] = experiment: Forced swimming test (FST); assay type: in vivo; details: 7th day of rearing, 30 minutes after oral treatment, testing time 6 minutes; kefir fermentation product 150 mg/kg, trazodone hydrochloride 10 mg/kg; average±standard deviation
Experimental: (§1) Take 5-week-old CD-1 mice, provide standard laboratory animal feed (Altromin, Germany) and distilled water (dH2O), and keep them for 12 hours at 22-24° C. for light/dark cycles. Before starting the test, each group of mice are raised in an experimental animal room for 1 week to adapt to the environment, and then the mice are randomly divided into 4 groups, and the mice in each of the groups are treated and raised for 8 days (referred to as the first day of rearing to the eighth day of rearing) according to the following conditions: • the first group: take distilled water orally; • the second group: take 150 mg/kg milk powder orally; • the third group: take 150 mg/kg kefir fermentation product orally; and • the fourth group: take 10 mg/kg drug trazodone hydrochloride orally.
The mice in each of the groups of Example 2 are treated for 30 minutes according to the above conditions on the 7th day of rearing, and then a swimming test is carried out, testing time is 6 minutes. Movement and immobility time are measured and analyzed with a camera. The results are shown in FIG. 4, wherein the immobility time is a period of time without active movement but only floating in the water; the movement time is a period of time with active movement or circular movement.

CD-1 mice [3] = experiment: Elevated plus maze test (EPMT); assay type: in vivo; details: 7th day of rearing, 6 hours after oral treatment, 5 minutes observed; compared with first group (distilled water); 150 mg/kg milk powder or kefir fermentation product, 10 mg/kg trazodone hydrochloride
Experimental: as §1
The mice in each of the groups of Example 1 are treated for 6 hours according to the above conditions on the 7th day of rearing, and then an elevated plus maze test is performed, and paths of the mice in each of the groups within 5 minutes are observed with a camera. The results are shown in FIGS. 2A to 2D, and the time of the mice in each of the groups spent on open arms or closed arms in the elevated plus maze is analyzed, and the results are shown in FIG. 2E to FIG. 2H.

CD-1 mice [4] = experiment: Open field test (OFT); assay type: in vivo; details: 8th day of rearing, 30 minutes after oral treatment, 5 minutes in open field; compared with first group (distilled water)
Experimental: as §1
The mice in each of the groups in Example 2 are treated according to the above conditions for 30 minutes on the 8th day of rearing, and then an open field test is carried out. Specifically, the mice in each of the groups are first placed in an open field (45×45×40 cm) for 5 minutes, their travel paths and travel speeds are observed respectively, and the time it takes to reach the centers and the time spent at a fixed position are calculated.

Erk1/2 = Erk1/2 and p-Erk1/2 protein in hippocampal tissues, western blot; assay type: in vivo, mice; details: oral treatment for 8 days, compared with first group (distilled water)
Experimental: as §1
(§2) After the test, the mice in each of the groups are anesthetized and their hippocampal tissues are isolated, and frozen and preserved for use in subsequent examples.
(§3) Expressions of protein and mRNA in the hippocampal tissues of the mice in each of the groups in Example 2 are assessed by quantitative RT-PCR method and western blot analysis, and the results are shown in FIG. 6 and FIG. 7, respectively.

TrkB = TrkB and p-TrkB protein in hippocampal tissues, western blot; assay type: in vivo, mice; details: oral treatment for 8 days, compared with first group (distilled water)
Experimental: as §1, §2, §3

[5] = system: BDNF (brain-derived neurotrophic factor); experiment: BDNF mRNA expression in hippocampal tissues, quantitative RT-PCR; assay type: in vivo, mice; details: oral treatment for 8 days; compared with first group (distilled water)
Experimental: as §1, §2, §3

Compound | immobility time in tail suspension test (CD-1 mice [1]) | movement time in tail suspension test (CD-1 mice [1]) | immobility time in swimming test (CD-1 mice [2]) | movement time in swimming test (CD-1 mice [2]) | paths of the mice in the elevated plus maze (movement to the open arms) (CD-1 mice [3]) | movement distance in an open field (CD-1 mice [4]) | movement speed in an open field (CD-1 mice [4]) | time spent at a fixed position in an open field (CD-1 mice [4]) | expression level of total Erk1/2 protein in hippocampal tissues (Erk1/2) | phosphorylation status p-Erk1/2/Erk1/2 in hippocampal tissues (Erk1/2; P<0.05) | expression level of total TrkB protein in hippocampal tissues (TrkB) | phosphorylation status p-TrkB/TrkB in hippocampal tissues (TrkB; P<0.05) | expression of BDNF mRNA in hippocampal tissues [5]
peptide 3: KLHLPLPLVQSWM, SEQ ID No: 3; peptide isolated from kefir fermentation product, can also be chemically synthesized (artificiall obtained) | 1.8 ± 0.3 min | 2.2 ± 0.3 min |  |  |  |  |  |  |  |  |  |  | 
O=c1n(CCCN2CCN(c3cccc(Cl)c3)CC2)nc2ccccn12 [trazodone hydrochloride] |  |  | 0.9 ± 0.2 min | 3.1 ± 0.3 min | move to the open arms | move a longer distance | move faster | spend less time at a certain fixed position | have not change significantly | increases significantly | have not change significantly | increases significantly | significantly improved
peptide 2: YQEPVLGPVRGPFPI, SEQ ID No: 2; the kefir peptide of the invention, isolated from kefir fermentation product (artificiall obtained) | 1.0 ± 0.2 min | 3.0 ± 0.2 min |  |  |  |  |  |  |  |  |  |  | 

Source: patent US11882846B2, “Use of kefir peptide for improving or treating depressive behaviors and related diseases” (National Chung Hsing University, priority 2021, dated 2024)
